Measurements: patent publication US9662357B2, “Bacterium and extracts of said bacterium and the use of same in dermatology” (PIERRE FABRE DERMO-COSMETIQUE, priority 2010, dated 2017)

Legend:
Format in all cases: cell-based
[1] = system: Bacterium LMB64; assay: Antibiotic sensitivity of bacterium LMB64, zone of inhibition; conditions: disc load given with each antibiotic; for Zone of inhibition diameter (mm) LB ½: LB ½ dilution medium; for Zone of inhibition diameter (mm) LB ⅕: LB ⅕ dilution medium; for Zone of inhibition diameter (mm) R3: R3 medium
[2] = system: RANTES; assay: PCR array, NHEK atopic dermatitis phenotype: RANTES; conditions: Homo sapiens, read-out: percentage of inhibition RANTES
Protocol: (§1) The study was carried out on normal human epidermal keratinocytes (NHEK, K-SFM culture medium) in the context of the induction of an atopic dermatitis phenotype.

[3] = system: MIP-3α; assay: PCR array, NHEK atopic dermatitis phenotype: MIP-3α; conditions: Homo sapiens, read-out: percentage of inhibition MIP-3α
Protocol: as §1

[4] = system: RARRES3; assay: PCR array, NHEK atopic dermatitis phenotype: RARRES3; conditions: Homo sapiens, read-out: percentage of inhibition RARRES3
Protocol: as §1

[5] = system: IL-8; assay: PCR array, NHEK atopic dermatitis phenotype: IL-8; conditions: Homo sapiens, read-out: percentage of inhibition IL-8
Protocol: as §1

[6] = system: TSLP; assay: PCR array, NHEK atopic dermatitis phenotype: TSLP; conditions: Homo sapiens, read-out: percentage of inhibition TSLP
Protocol: as §1

[7] = system: IL-1α; assay: PCR array, NHEK atopic dermatitis phenotype: IL-1α; conditions: Homo sapiens, read-out: percentage of inhibition IL-1α
Protocol: as §1

[8] = system: Skinkine; assay: PCR array, NHEK atopic dermatitis phenotype: Skinkine; conditions: Homo sapiens, read-out: percentage of inhibition Skinkine
Protocol: as §1

[9] = system: MlP-1α; assay: PCR array, NHEK atopic dermatitis phenotype: MlP-1α; conditions: Homo sapiens, read-out: percentage of inhibition MlP-1α
Protocol: as §1

[10] = system: IFN-β1; assay: PCR array, NHEK atopic dermatitis phenotype: IFN-β1; conditions: Homo sapiens, read-out: percentage of inhibition IFN-β1
Protocol: as §1

[11] = system: IL-4-R; assay: PCR array, NHEK atopic dermatitis phenotype: IL-4-R; conditions: Homo sapiens, read-out: percentage of inhibition IL-4-R
Protocol: as §1

[12] = system: IL-18; assay: PCR array, NHEK atopic dermatitis phenotype: IL-18; conditions: Homo sapiens, read-out: percentage of inhibition IL-18
Protocol: as §1

[13] = system: MDC; assay: PCR array, NHEK atopic dermatitis phenotype: MDC; conditions: Homo sapiens, read-out: percentage of inhibition MDC
Protocol: as §1

Compound	Zone of inhibition diameter (mm) LB ½ [1]	Zone of inhibition diameter (mm) LB ⅕ [1]	Zone of inhibition diameter (mm) R3 [1]	further results
CC1(C)S[C@@H]2[C@H](NC(=O)[C@H](N)c3ccccc3)C(=O)N2[C@H]1C(=O)O [Ampicillin]	28 mm	29 mm	29 mm	–
O=C(N[C@H](CO)[C@H](O)c1ccc([N+](=O)[O-])cc1)C(Cl)Cl [Chloramphenicol]	26 mm	24 mm	29 mm	–
O=C(O)c1cn(C2CC2)c2cc(N3CCNCC3)c(F)cc2c1=O [Ciprofloxacin]	–	34 mm	38 mm	–
C[C@@H]1C[C@H]2[C@@H]3CCC4=CC(=O)C=C[C@]4(C)[C@@]3(F)[C@@H](O)C[C@]2(C)[C@@]1(O)C(=O)CO [Dexamethasone]	–	–	–	inhibition at 2 µM [2]: 12%; inhibition at 2 µM [3]: 40%; inhibition at 2 µM [4]: 28%; inhibition at 2 µM [5]: 75%; inhibition at 2 µM [6]: 91%; inhibition at 2 µM [7]: 54%; inhibition at 2 µM [8]: 59%; inhibition at 2 µM [9]: 76%; inhibition at 2 µM [10]: 49%; inhibition at 2 µM [11]: 75%; inhibition at 2 µM [12]: 44%; inhibition at 2 µM [13]: 45%
NC[C@H]1O[C@H](O[C@H]2[C@H](O)[C@@H](O[C@H]3O[C@H](CO)[C@@H](O)[C@H](N)[C@H]3O)[C@H](N)C[C@@H]2N)[C@H](O)[C@@H](O)[C@@H]1O [Kanamycin]	30 mm	27 mm	27 mm	–
CO[C@H]1/C=C/O[C@@]2(C)Oc3c(C)c(O)c4c(O)c(c(/C=N/N5CCN(C)CC5)c(O)c4c3C2=O)NC(=O)/C(C)=C\C=C\[C@H](C)[C@H](O)[C@@H](C)[C@@H](O)[C@@H](C)[C@H](OC(C)=O)[C@@H]1C [Rifampicin]	19 mm	15 mm	20 mm	–
[H]/N=C(/N)N[C@H]1[C@H](O)[C@@H](O)[C@H](O[C@@H]2O[C@@H](C)[C@](O)(C=O)[C@H]2O[C@@H]2O[C@@H](CO)[C@H](O)[C@@H](O)[C@@H]2NC)[C@@H](N/C(N)=N\[H])[C@@H]1O [Streptomycin]	25 mm	24 mm	25 mm	–
CN(C)[C@@H]1C(O)=C(C(N)=O)C(=O)[C@@]2(O)C(O)=C3C(=O)c4c(O)cccc4[C@@](C)(O)[C@H]3C[C@@H]12 [Tetracycline]	25 mm	20 mm	30 mm	–
CN[C@H](CC(C)C)C(=O)N[C@H]1C(=O)N[C@@H](CC(N)=O)C(=O)N[C@H]2C(=O)N[C@H]3C(=O)N[C@H](C(=O)N[C@H](C(=O)O)c4cc(O)cc(O)c4-c4cc3ccc4O)[C@H](O)c3ccc(c(Cl)c3)Oc3cc2cc(c3O[C@@H]2O[C@H](CO)[C@@H](O)[C@H](O)[C@H]2O[C@H]2C[C@](C)(N)[C@H](O)[C@H](C)O2)Oc2ccc(cc2Cl)[C@H]1O [Vancomycin]	21 mm	21 mm	20 mm	–
Penicillin	26 mm	20 mm	21 mm	–
Polymyxin B	15 mm	13 mm	11 mm	–
